# Assay results reported in patent EP0244728B1, “Use of heteroarylethyl amines to stimulate animal growth, heteroarylethyl amines and process for their preparation” (BAYER AG, priority 1986, dated 1987).
# Assay: Rat feeding trial (Ratten-Fütterungsversuch), Beispiel A
# Type: in vivo
# Conditions: Dosis 100 ppm in feed ad lib; female SPF Wistar rats, 90-110 g; 13-day trial; control without active substance = 100
# Source text: Weibliche Laborratten 90-110 g schwer vom Typ SPF Wistar (Züchtung Hagemann) werden ad lib mit Standard Rattenfutter, das mit der gewünschten Menge Wirkstoff versetzt ist, gefüttert. Jeder Versuchsansatz wird mit Futter der identischen Charge durchgeführt, so daß Unterschiede in der Zusammensetzung des Futters die Vergleichbarkeit der Ergebnisse nicht beeinträchtigen können.
# Die Ratten erhalten Wasser ad lib.
# Jeweils 12 Ratten bilden eine Versuchsgruppe und werden mit Futter, das mit der gewünschten Menge Wirkstoff versetzt ist gefüttert. Eine Kontrollgruppe erhält Futter ohne Wirkstoff. Das durchschnittliche Körpergewicht sowie die Streuung in den Körpergewichten der Ratten ist in jeder Versuchsgruppe gleich, so daß eine Vergleichbarkeit der Versuchsgruppen untereinander gewährleistet ist.
# Während des 13-tägigen Versuchs werden Gewichtszunahme und Futterverbrauch bestimmt.
row,SMILES,Gewichtszunahme
1,CC(C)(C)NCC(O)c1cnc(N)c(Cl)c1 (stereo not shown) [compound 3],115
2,CC(C)(C)NCC(O)c1cc(Cl)nc(Cl)c1 (stereo not shown) [compound 1],110
3,CC(C)(C)NCC(O)c1ccc(N)c(Cl)n1 (stereo not shown) [compound 6],110
4,CC(C)NCC(O)c1ccc(N)cn1 (stereo not shown) [compound 7],120
